{
  "source": "paper PMC7580834",
  "about": "“Inhibition mechanism of naphthylphenylamine derivatives acting on the CDC25B dual phosphatase and analysis of the molecular processes involved in the high cytotoxicity exerted by one selected derivative in melanoma cells” (Journal of Enzyme Inhibition and Medicinal Chemistry, 2020)",
  "key": {"[1]": {"biological_target": "T1, OMFP-bound CDC25B-C473S (Homo sapiens, UniProt P30305, C487S)", "T1 sequence (P30305 370-580 C487S)": "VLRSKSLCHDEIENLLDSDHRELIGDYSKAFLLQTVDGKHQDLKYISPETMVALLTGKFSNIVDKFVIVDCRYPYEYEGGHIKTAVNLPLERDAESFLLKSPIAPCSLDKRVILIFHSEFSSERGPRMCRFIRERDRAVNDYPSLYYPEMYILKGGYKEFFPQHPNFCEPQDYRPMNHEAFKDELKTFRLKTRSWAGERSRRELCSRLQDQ", "experiment": "Intrinsic fluorescence quenching of CDC25B-C473S in the presence of 5 µM OMFP (Stern-Volmer)", "assay_type": "binding", "settings": "reciprocal of KSV; presence of 5 µM OMFP; read-out: K′D of the complex, OMFP-bound CDC25B-C473S•inhibitor", "from_the_text": "(§1) The mutant form of CDC25B, carrying the C473S replacement (CDC25B-C473S), was obtained through site-directed mutagenesis of the CDC25B catalytic segment cloned in pET28a-CDC25B-cd. To this aim, the QuikChange site-directed mutagenesis kit (Stratagene, La Jolla, CA, USA) and the forward and reverse primers for C473S replacement (5′d-[…]-3′ and 5′d-[…]-3′) were used. Positive clones were obtained, and the nucleotide sequencing of the mutagenised segment excluded the presence of undesired mutations. The new vector was called pET28a-CDC25B-C473S-cd. The expression of the new vector and the purification of the recombinant form of CDC25B-C473S catalytic domain were carried out as previously reported for wild-type CDC25B catalytic domain[18], and similar yields were obtained. As expected, the mutant enzyme was unable to hydrolyse the synthetic substrate OMFP, when its activity was checked with the fluorimetric assay method previously described.\n(§2) Fluorescence spectra were recorded at 20 °C using a computer-assisted Cary Eclipse spectrofluorimeter (Varian, Palo Alto, CA, USA) equipped with an electronic temperature controller. The excitation wavelength was set at 280 nm and the excitation and emission slits were set at 10 and 20 nm, respectively. A 500 µL final volume of a 0.2 µM solution of CDC25B or CDC25B-C473S dissolved in 20 mM Tris•HCl, pH 7.8, 0.5 mM TCEP was directly prepared in the fluorimetric cuvette in the absence or in the presence of OMFP and/or some NPA derivatives. Serial pre-dilutions of the NPA derivatives or OMFP at increasing concentration were prepared in DMSO or methanol, respectively. Alongside, a convenient amount of the enzyme pre-dilution was prepared just before its usage for the experiment and stored on ice. When the combined effect of NPA derivative and OMFP was investigated, two enzyme pre-dilutions were prepared in the absence or in the presence of 5 µM OMFP. In order to evaluate the specific effect produced by any addition of solvent/ligand on the intrinsic fluorescence of the enzyme, 495 µL of the enzyme pre-dilution were placed in the fluorimetric cuvette and the relative spectrum was recorded; after the addition of 5 µL of each pre-dilution of solvent/ligand and fast mixing, the spectrum was recorded again. This procedure, repeated for each experimental point, allowed a normalisation of the specific effects produced by solvent/ligands. Furthermore, a correction was also applied for the little inner-filter effect due to the absorbance at 280 nm of the NPA derivative used at different concentrations; on the other hand, no correction was necessary for OMFP. All spectra, recorded at a scan speed of 120 nm/min, were normalised and corrected."}, "[2]": {"test_system": "OMFP-bound CDC25B-C473S", "experiment": "Intrinsic fluorescence quenching of CDC25B-C473S in the presence of 5 µM OMFP (Stern-Volmer)", "assay_type": "binding", "from_the_text": "as §1, §2"}, "[3]": {"test_system": "caspase-3 in A2058 cells", "experiment": "Caspase-3 fluorimetric activity assay in cell lysates", "assay_type": "cell-based, human", "settings": "10 µM, 24 h", "procedure": "(§3) The caspase-3 and caspase-9 enzymatic activity was measured by using caspase-3 and -9 fluorimetric assay kits, respectively, according to the manufacturer’s protocol. Briefly, cells were seeded into 75 cm^2 plates (2 × 10^6 cells/plate) and after 24 h treated with 4a or 0.5% (v/v) DMSO for 24 h. At the end of incubation, cells were collected, washed with phosphate-buffered saline constituted by 10 mM Na2HPO4, 2 mM KH2PO4, pH 7.4, supplemented with 137 mM NaCl and 2.7 mM KCl (PBS), and finally lysed at 4 °C in the cell lysis buffer. Cell lysates were incubated with 50 µM DEVD-AFC or LEHD-AFC substrates at 37 °C for 2 h, to detect caspase-3 or caspase-9 activity, respectively, using a Cary Eclipse spectrofluorimeter. Excitation and emission wavelengths were set at 400 nm and 505 nm, respectively; both excitation and emission slits were set at 10 nm."}, "[4]": {"test_system": "caspase-3 in A375 cells", "experiment": "Caspase-3 fluorimetric activity assay in cell lysates", "assay_type": "cell-based, human", "settings": "10 µM, 24 h", "procedure": "as §3"}},
  "data": [
    {"molecule": "CCOC(=O)c1cccc(Nc2cc(OC)cc3ccccc23)c1", "note": "[4a]", "values": [
      {"measurement": "Kd", "setting": "[1]", "value": 32, "unit": "µM"},
      {"measurement": "KSV (Stern-Volmer constant)", "setting": "[2]; 0.2 µM CDC25B-C473S, in the presence of 5 µM OMFP", "value": 0.031, "unit": "µM⁻¹"},
      {"measurement": "K′D/Ki ratio", "setting": "[2]; K′D of OMFP-bound CDC25B-C473S•inhibitor over Ki", "value": 3.8},
      {"measurement": "enzymatic activity of caspase-3", "setting": "[3]", "value": "statistically significant increase"},
      {"measurement": "enzymatic activity of caspase-3", "setting": "[4]", "value": "statistically significant increase"}
    ]}
  ]
}
